# ChEMBL document CHEMBL1926606, “Cannabinomimetic lipid from a marine cyanobacterium” (J Nat Prod, 2011)
# The source made the active and inactive calls. The rule behind the calls is not given here.
# Tests used:
# Cannabinoid receptor 1 = Cannabinoid receptor 1 (Homo sapiens, UniProt P21554); test: Displacement of [3H]CP55940 from human recombinant CB1 receptor expressed in HEK293 cells after 90 mins; assay type: cell-based
# Cannabinoid receptor 2 = Cannabinoid receptor 2 (Homo sapiens, UniProt P34972); test: Displacement of [3H]CP55940 from human recombinant CB2 receptor expressed in HEK293 cells after 90 mins; assay type: cell-based
# Sequence of Cannabinoid receptor 2 (P34972 whole entry): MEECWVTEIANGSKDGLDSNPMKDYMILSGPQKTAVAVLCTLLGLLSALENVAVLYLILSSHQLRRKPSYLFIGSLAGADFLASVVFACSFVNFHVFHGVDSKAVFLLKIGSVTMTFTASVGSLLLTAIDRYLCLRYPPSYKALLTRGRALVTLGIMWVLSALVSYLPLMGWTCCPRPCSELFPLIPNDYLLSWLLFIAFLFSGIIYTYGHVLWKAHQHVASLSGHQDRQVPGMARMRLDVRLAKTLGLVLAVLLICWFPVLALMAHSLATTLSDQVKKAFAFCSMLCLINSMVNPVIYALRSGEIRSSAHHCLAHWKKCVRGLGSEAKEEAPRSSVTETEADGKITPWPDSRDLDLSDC
# NCI-H460 [1] = test: Cytotoxicity against human H460 cells assessed as cell survival up to 20 ug/ml; assay type: functional, cell-based
# Homo sapiens = species on record: Homo sapiens; test: Selectivity ratio of IC50 for human recombinant CB1 receptor to IC50 for human recombinant CB2 receptor
# NCI-H460 [2] = test: Cytotoxicity against human H460 cells assessed as cell survival at 50 ug/ml; assay type: functional; details: read-out: Activity
# NCI-H460 [3] = test: Cytotoxicity against human H460 cells assessed as cell survival at 5 ug/ml; assay type: functional; details: read-out: Activity
# Sequence of Cannabinoid receptor 1 (P21554 whole entry): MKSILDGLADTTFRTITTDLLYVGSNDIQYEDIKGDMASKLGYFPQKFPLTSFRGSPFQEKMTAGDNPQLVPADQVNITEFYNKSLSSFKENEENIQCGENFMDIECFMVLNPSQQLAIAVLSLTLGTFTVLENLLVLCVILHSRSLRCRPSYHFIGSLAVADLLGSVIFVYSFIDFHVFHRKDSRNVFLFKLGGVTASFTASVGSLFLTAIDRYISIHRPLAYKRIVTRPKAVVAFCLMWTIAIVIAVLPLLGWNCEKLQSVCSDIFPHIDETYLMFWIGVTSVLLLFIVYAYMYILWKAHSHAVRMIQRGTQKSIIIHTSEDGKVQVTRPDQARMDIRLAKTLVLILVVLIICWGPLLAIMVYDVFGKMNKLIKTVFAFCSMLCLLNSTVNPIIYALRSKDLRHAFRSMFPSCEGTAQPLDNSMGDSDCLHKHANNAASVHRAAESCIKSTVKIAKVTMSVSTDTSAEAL
Compound,IC50 (Cannabinoid receptor 1),IC50 (Cannabinoid receptor 2),Activity (NCI-H460 [1]),Ki (Cannabinoid receptor 1),Ratio IC50 (Homo sapiens),viability at 50 µg/mL (NCI-H460 [2]),viability at 5 µg/mL (NCI-H460 [3]),Ki (Cannabinoid receptor 2)
C=C(CCCCCCCCCCCCC)CCCC(=O)O/C=C\COC(C)=O,> 10000 nM,> 10 µM,inactive,–,–,–,–,–
CCCCCCCCCCCCC/C=C/CCC(=O)N(C)[C@H](CO)COC [SERINOLAMIDE A],2300 nM,> 10 µM,–,1300 nM,> 5,0%,60%,–
CCCCC/C=C\C/C=C\C/C=C\C/C=C\CCCC(=O)N[C@@H](CO)C(=O)O,–,–,–,> 10000 nM,–,–,–,> 10 µM
